According to US20240059703A1 (AMGEN INC., priority 2021, published 2024):

Key:
KRAS G12C = KRAS G12C (Homo sapiens (Human), UniProt P01116, C118A/G12C); assay: 2 h coupled exchange assay; assay type: biochemical; conditions: Avg 2 h Coupled exchange IC50, 2 h compound pre-incubation, SOS-mediated nucleotide exchange
Procedure: The term “2 h coupled exchange assay” or “20 h coupled exchange assay” as used herein refers to the assay described in the Section entitled “BIOLOGICAL EVALUATION.”

[1] = tested on: MIA PaCa-2 (human pancreatic carcinoma) cells; assay: Cell Viability Assay (CellTiter-Glo), MIA PaCa-2; assay type: cell-based; conditions: Homo sapiens, MIA PaCa-2, 72 h
Procedure: Serially-diluted compound or DMSO was added to the cells, and plates were incubated at 37° C., 5% CO2 for 72 h. Cell viability was measured using a CellTiter-Glo® Luminescent Cell Viability Assay kit (Promega) according to the manufacturer's protocol. The luminescence signal of treated samples was normalized to DMSO control, and data were analyzed using a 4-parameter logistic model to calculate IC50 values.

[2] = tested on: A549 (human lung carcinoma) cells; assay: Cell Viability Assay (CellTiter-Glo), A549; assay type: cell-based; conditions: Homo sapiens, A549, 72 h
Method in brief: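 MIA PaCa-2 or A549 cells in RPMI 1640 with 10% FBS were seeded at 1.67E+04 cells/mL and incubated overnight. Serially diluted compound was then added for 72 h at 37° C, 5% CO2. Viability read by CellTiter-Glo luminescence, normalized to DMSO, with IC50 from a 4-parameter logistic fit.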

KRAS G12C, sequence (P01116 other isoform, or with tags, fused parts or gaps G12C/C118A): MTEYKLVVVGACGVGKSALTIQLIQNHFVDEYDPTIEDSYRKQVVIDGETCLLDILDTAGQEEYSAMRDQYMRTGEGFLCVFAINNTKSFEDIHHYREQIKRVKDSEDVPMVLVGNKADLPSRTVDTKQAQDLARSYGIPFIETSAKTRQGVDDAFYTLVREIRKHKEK

| Compound | IC50 (KRAS G12C) [nM] | IC50 [1] [nM] | IC50 [2] [nM] |
| --- | --- | --- | --- |
| C=CC(=O)N1CC2(CCN(c3nc(-c4ccccc4F)c4ccn(C)c4n3)C2)C1 [Example 1-32] | 250000 | 17100 | 12100 |
| C=CC(=O)N1CC2(CCN(c3nc(-c4ccccc4F)c4c(n3)N(C)CCC4)C2)C1 [Example 1-33, 1-(6-(4-(2-fluorophenyl)-8-methyl-5,6,7,8-tetrahydropyrido[2,3-d]pyrimidin-2-yl)-2,6-diazaspiro[3,4]octan-2-yl)-2-propen-1-one] | 174000 | 13400 | 13400 |
| C=CC(=O)N1CC2(CCN(c3nc4c(c(-c5c(C(C)C)ccc6[nH]ncc56)n3)CCCC4)C2)C1 [Example 1-35, 1-(6-(4-(5-(2-propanyl)-1H-indazol-4-yl)-5,6,7,8-tetrahydro-2-quinazolinyl)-2,6-diazaspiro[3.4]octan-2-yl)-2-propen-1-one] | 1550 | 2370 | 7120 |
| C=CC(=O)N1CC2(CCN(c3nc4c(c(-c5c(C)ccc6[nH]nc(C)c56)n3)CCCC4)C2)C1 [Example 1-36, 1-(6-(4-(3,5-dimethyl-1H-indazol-4-yl)-5,6,7,8-tetrahydro-2-quinazolinyl)-2,6-diazaspiro[3.4]octan-2-yl)-2-propen-1-one] | 1660 | 3380 | 15900 |
| C=CC(=O)N1CC2(CCN(c3cn4c(C)cnc4c(-c4c(C)ccc5[nH]ncc45)c3C#N)C2)C1 [Example 1-37, 3-methyl-8-(5-methyl-1H-indazol-4-yl)-6-(2-(2-propenoyl)-2,6-diazaspiro[3.4]octan-6-yl)imidazo[1,2-a]pyridine-7-carbonitrile] | 402 | 2280 | > 25000 |
| C=CC(=O)N1CC2(C1)CN(c1nc3c(F)cccc3c(-c3c(C)ccc4[nH]ncc34)c1C#N)CC2(F)F [Example 1-39, 2-(8,8-difluoro-2-(2-propenoyl)-2,6-diazaspiro[3.4]octan-6-yl)-8-fluoro-4-(5-methyl-1H-indazol-4-yl)-3-quinolinecarbonitrile] | 757 | 2740 | 6250 |
| C=CC(=O)N1CC2(CCN(c3nc(-c4c(C)ccc5[nH]ncc45)c4ccc(OC)cc4n3)C2)C1 [Example 1-41, 1-(6-(7-methoxy-4-(5-methyl-1H-indazol-4-yl)-2-quinazolinyl)-2,6-diazaspiro[3.4]octan-2-yl)-2-propen-1-one] | 882 | > 5000 | > 5000 |
| C=CC(=O)N1CC2(CCN(c3nc4c(c(-c5cccc6cccc(C)c56)n3)OCCC4)C2)C1 [Example 1-42, 1-(6-(4-(8-methyl-1-naphthalenyl)-7,8-dihydro-6H-pyrano[3,2-d]pyrimidin-2-yl)-2,6-diazaspiro[3,4]octan-2-yl)-2-propen-1-one] | 456 | 5920 | 22800 |
| C=CC(=O)N1CC2(CCN(c3nc4c(F)cccc4c(-c4c(C)ccc5[nH]ncc45)c3C#N)CC2(F)F)C1 [Example 1-43, 2-(5,5-difluoro-2-(2-propenoyl)-2,7-diazaspiro[3.5]nonan-7-yl)-8-fluoro-4-(5-methyl-1H-indazol-4-yl)-3-quinolinecarbonitrile] | 858 | 2160 | 6250 |
| C=CC(=O)N1CC2(CCN(c3nc4c(F)cccc4c(-c4c(C)ccc5[nH]ncc45)c3C#N)C2=O)C1 [Example 1-44, 8-fluoro-4-(5-methyl-1H-indazol-4-yl)-2-(5-oxo-2-(2-propenoyl)-2,6-diazaspiro[3,4]octan-6-yl)-3-quinolinecarbonitrile] | 6830 | 6400 | 12500 |
| Cc1ccc2[nH]ncc2c1-c1c(C#N)c(N2CCC3(CN(C(=O)/C=C/CN(C)C)C3)C2)nc2c(F)cccc12 [Example 1-46, 2-(2-((2E)-4-(dimethylamino)-2-butenoyl)-2,6-diazaspiro[3.4]octan-6-yl)-8-fluoro-4-(5-methyl-1H-indazol-4-yl)-3-quinolinecarbonitrile] | 1530 | 2020 | 6250 |
| C=CC(=O)N1CC2(CCN(c3cn4ncnc4c(-c4c(C)ccc5[nH]ncc45)c3C#N)C2)C1 [Example 1-48, 8-(5-methyl-1H-indazol-4-yl)-6-(2-(2-propenoyl)-2,6-diazaspiro[3.4]octan-6-yl)[1,2,4]triazolo[1,5-a]pyridine-7-carbonitrile] | 554 | > 5000 | > 5000 |
| C=CC(=O)N1CC2(CCN(c3nc4c(ccn4C)c(-c4c(C)ccc5[nH]ncc45)c3C#N)C2)C1 [Example 1-50, 1-methyl-4-(5-methyl-1H-indazol-4-yl)-6-(2-(2-propenoyl)-2,6-diazaspiro[3.4]octan-6-yl)-1H-pyrrolo[2,3-b]pyridine-5-carbonitrile] | 498 | > 5000 | > 5000 |
| C=CC(=O)N1CC2(CCN(c3nc4c(N5CCCC5)ccn4c(-c4c(C)ccc5[nH]ncc45)c3C#N)C2)C1 [Example 1-52] | 244 | 1890 | 39000 |
| C=CC(=O)N1CC2(CCN(c3nc4ccccc4c(-c4c(C)ccc5cn[nH]c45)c3C#N)C2)C1 [Example 2-2, 4-(6-methyl-1H-indazol-7-yl)-2-(2-(2-propenoyl)-2,6-diazaspiro[3.4]octan-6-yl)-3-quinolinecarbonitrile] | 694 | 1730 | 6250 |
| C=CC(=O)N1CC2(CCN(c3nc4ccccc4c(-c4cccc5sc(N)nc45)c3C#N)C2)C1 [Example 2-3, 4-(2-amino-1,3-benzothiazol-4-yl)-2-(2-(2-propenoyl)-2,6-diazaspiro[3.4]octan-6-yl)-3-quinolinecarbonitrile] | 537 | 693 | 3120 |

The next compounds have a lower IC50 (KRAS G12C) than those just listed; values first:

| IC50 (KRAS G12C) [nM] | IC50 [1] [nM] | IC50 [2] [nM] | Compound |
| --- | --- | --- | --- |
| 173 | 2060 | 6250 | C=CC(=O)N1CC2(CCN(c3nc4ccccc4c(-c4cc(O)cc5ccccc45)c3C#N)C2)C1 [Example 2-4, 4-(3-hydroxy-1-naphthalenyl)-2-(2-(2-propenoyl)-2,6-diazaspiro[3.4]octan-6-yl)-3-quinolinecarbonitrile] |
| 124 | 24600 | 13400 | C=CC(=O)N1CC2(CCN(c3nc4c(F)cccc4c(-c4c(C)ccc5[nH]ncc45)c3C#N)C2CF)C1 (stereo not drawn) [Example 1-49, 8-fluoro-2-(5-(fluoromethyl)-2-(2-propenoyl)-2,6-diazaspiro[3.4]octan-6-yl)-4-(5-methyl-1H-indazol-4-yl)-3-quinolinecarbonitrile] |
| 122 | 976 | > 5000 | C=CC(=O)N1CC2(CCN(c3nc4cc(-c5nccs5)cn4c(-c4c(C)ccc5[nH]ncc45)c3C#N)C2)C1 [Example 1-54] |
| 103 | 294 | 6250 | C=CC(=O)N1CC2(CCN(c3cn4cc(-c5ccccc5)nc4c(-c4c(C)ccc5[nH]ncc45)c3C#N)C2)C1 [Example 1-38, 8-(5-methyl-1H-indazol-4-yl)-2-phenyl-6-(2-(2-propenoyl)-2,6-diazaspiro[3.4]octan-6-yl)imidazo[1,2-al]yridine-7-carbonitrile] |
| 99 | 13400 | > 50000 | C=CC(=O)N1CC2(CCN(c3nc4c(N5CCN(C)CC5)ccn4c(-c4c(C)ccc5[nH]ncc45)c3C#N)C2)C1 [Example 1-53] |
| 59 | 554 | 3640 | C=CC(=O)N1CC2(CCN(c3nc4c(c(-c5c(C)ccc6[nH]ncc56)c3C#N)CCCC4)C2)C1 [Example 2-8, 4-(5-methyl-1H-indazol-4-yl)-2-(2-(2-propenoyl)-2,6-diazaspiro[3.4]octan-6-yl)-5,6,7,8-tetrahydro-3-quinolinecarbonitrile] |
| 56 | 237 | 6250 | C=CC(=O)N1CC2(CCN(c3nc4ccccc4c(-c4c(C)c(C)cc5[nH]ncc45)c3C#N)C2)C1 [Example 2-6, 4-(5,6-dimethyl-1H-indazol-4-yl)-2-(2-(2-propenoyl)-2,6-diazaspiro[3.4]octan-6-yl)-3-quinolinecarbonitrile] |
| 42 | 430 | 3100 | C=CC(=O)N1CC2(CCN(c3nc4c(c(-c5c(C)ccc6[nH]ncc56)c3C#N)CCC(C)C4)C2)C1 (stereo not drawn) [Example 2-1, 2-(2-acryloyl-2,6-diazaspiro[3.4]octan-6-yl)-7-methyl-4-(5-methyl-1H-indazol-4-yl)-5,6,7,8-tetrahydroquinoline-3-carbonitrile] |
| 42 | 943 | 6250 | C=CC(=O)N1CC2(C1)CN(c1nc3c(c(-c4c(C)ccc5[nH]ncc45)c1C#N)CCC(C)C3)CC2(F)F (stereo not drawn) [Example 2-5, 2-(8,8-difluoro-2-(2-propenoyl)-2,6-diazaspiro[3.4]octan-6-yl)-7-methyl-4-(5-methyl-1H-indazol-4-yl)-5,6,7,8-tetrahydro-3-quinolinecarbonitrile] |
| 32 | 332 | > 5000 | C=CC(=O)N1CC2(CCN(c3nc4cc(OC)ccc4c(-c4c(C)ccc5[nH]ncc45)c3C#N)C2)C1 [Example 1-45, 7-methoxy-4-(5-methyl-1H-indazol-4-yl)-2-(2-(2-propenoyl)-2,6-diazaspiro[3.4]octan-6-yl)-3-quinolinecarbonitrile] |
